According to PubChem BioAssay (NCI):
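In this assay, cells in 96-well plates receive the compound at five concentrations for 48 hours. Endpoints are linearly interpolated between the surrounding concentrations. The concentration for 50% growth inhibition is given as GI50. The concentration for full growth arrest is given as TGI.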

What was measured:
Assay in all cases: NCI tumour cell line growth inhibition, 48 h
[1] = test system: UACC-257 melanoma
[2] = test system: SK-OV-3 ovarian
[3] = test system: A549 NSCLC
[4] = test system: SW-620 colon
[5] = test system: SN12C renal
[6] = test system: OVCAR-5 ovarian
[7] = test system: CAKI-1 renal
[8] = test system: HS 578T breast
[9] = test system: IGROV1 ovarian
[10] = test system: HOP-62 NSCLC
[11] = test system: NCI-H460 lung
[12] = test system: TK-10 renal
[13] = test system: MDA-MB-231 breast
[14] = test system: K-562 leukemia
[15] = test system: SK-MEL-5 melanoma
[16] = test system: OVCAR-4 ovarian
[17] = test system: SF-268 CNS
[18] = test system: OVCAR-8 ovarian
[19] = test system: UO-31 renal
[20] = test system: OVCAR-3 ovarian
[21] = test system: 786-0 renal
[22] = test system: SNB-19 CNS
[23] = test system: RXF 393 renal
[24] = test system: HCT-116 colon
[25] = test system: BT-549 breast
[26] = test system: ACHN renal
[27] = test system: KM12 colon
[28] = test system: CCRF-CEM leukemia
[29] = test system: COLO 205 colon
[30] = test system: SK-MEL-2 melanoma
[31] = test system: SNB-75 CNS
[32] = test system: UACC-62 melanoma
[33] = test system: SK-MEL-28 melanoma
[34] = test system: HCC-2998 colon
[35] = test system: HL-60(TB) leukemia
[36] = test system: SF-295 CNS
[37] = test system: MDA-MB-435
[38] = test system: A498 renal
[39] = test system: HT29 colon
[40] = test system: MALME-3M melanoma
[41] = test system: HCT-15 colon
[42] = test system: NCI-H522 lung
[43] = test system: T-47D breast
[44] = test system: NCI-H226 lung
[45] = test system: LOX IMVI melanoma
[46] = test system: SR leukemia
[47] = test system: RPMI-8226 leukemia
[48] = test system: EKVX NSCLC
[49] = test system: SF-539 CNS
[50] = test system: NCI-H23 lung
[51] = test system: DU-145 prostate
[52] = test system: U251 CNS
[53] = test system: HOP-92 NSCLC
[54] = test system: MOLT-4 leukemia
[55] = test system: MCF7 breast
[56] = test system: NCI/ADR-RES ovarian
[57] = test system: M14 melanoma
[58] = test system: PC-3 prostate

## Cn1c(I)c(C#C[Si](C)(C)C)c(=O)[nH]c1=O
[1]
  GI50: 0.236 µM
  TGI: 3.85 µM
[2]
  GI50: 17.2 µM
  TGI: 30.9 µM
[3]
  GI50: 21.5 µM
  TGI: 38.1 µM
[4]
  GI50: 1.71 µM
  TGI: 3.23 µM
[5]
  GI50: 6.66 µM
  TGI: 20.5 µM
[6]
  GI50: 14.7 µM
  TGI: 30.8 µM
[7]
  GI50: 2.76 µM
  TGI: 9.58 µM
[8]
  GI50: 2.3 µM
  TGI: 7.08 µM
[9]
  GI50: 1.9 µM
  TGI: 3.63 µM
[10]
  GI50: 17.6 µM
  TGI: 32.4 µM
[11]
  GI50: 19.7 µM
  TGI: 41.3 µM
[12]
  GI50: 7.93 µM
  TGI: 22.8 µM
[13]
  GI50: 2.5 µM
  TGI: 7.25 µM
[14]
  GI50: 1.68 µM
  TGI: 4.08 µM
[15]
  GI50: 17.1 µM
  TGI: 31 µM
[16]
  GI50: 1.97 µM
  TGI: 3.59 µM
[17]
  GI50: 2.79 µM
  TGI: 8.85 µM
[18]
  GI50: 12.1 µM
  TGI: 25.6 µM
[19]
  GI50: 16.8 µM
  TGI: 32.4 µM
[20]
  GI50: 1.9 µM
  TGI: 3.39 µM
[21]
  GI50: 16.4 µM
  TGI: 30.4 µM
[22]
  GI50: 16 µM
  TGI: 30.1 µM
[23]
  GI50: 0.639 µM
  TGI: 1.74 µM
[24]
  GI50: 1.89 µM
  TGI: 3.57 µM
[25]
  GI50: 3 µM
  TGI: 9.21 µM
[26]
  GI50: 1.61 µM
  TGI: 3.01 µM
[27]
  GI50: 16.8 µM
  TGI: 32.4 µM
[28]
  GI50: 1.74 µM
  TGI: 3.65 µM
[29]
  GI50: 1.87 µM
  TGI: 3.69 µM
[30]
  GI50: 14.4 µM
  TGI: 28.3 µM
[31]
  GI50: 15.2 µM
  TGI: 29.3 µM
[32]
  GI50: 6.4 µM
  TGI: 19.8 µM
[33]
  GI50: 1.66 µM
  TGI: 3.12 µM
[34]
  GI50: 2.32 µM
  TGI: 4.59 µM
[35]
  GI50: 1.9 µM
  TGI: 4.42 µM
[36]
  GI50: 20 µM
  TGI: 45.8 µM
[37]
  GI50: 3.1 µM
  TGI: 11.5 µM
[38]
  GI50: 16.4 µM
  TGI: 30.2 µM
[39]
  GI50: 2.41 µM
  TGI: 5.64 µM
[40]
  GI50: 1.96 µM
  TGI: 4.25 µM
[41]
  GI50: 1.83 µM
  TGI: 3.64 µM
[42]
  GI50: 1.68 µM
  TGI: 3.18 µM
[43]
  GI50: 2.54 µM
  TGI: 8 µM
[44]
  GI50: 12.7 µM
  TGI: 25.3 µM
[45]
  GI50: 2.09 µM
  TGI: 4 µM
[46]
  GI50: 3.37 µM
  TGI: 5.82 µM
[47]
  GI50: 1.64 µM
  TGI: 4.28 µM
[48]
  GI50: 10.9 µM
  TGI: 24.8 µM
[49]
  GI50: 9.28 µM
  TGI: 21.4 µM
[50]
  GI50: 4.25 µM
  TGI: 17.3 µM
[51]
  GI50: 4.11 µM
  TGI: 15.1 µM
[52]
  GI50: 12.8 µM
  TGI: 25.5 µM
[53]
  GI50: 1.08 µM
  TGI: 2.53 µM
[54]
  GI50: 2.54 µM
  TGI: 5.76 µM
[55]
  GI50: 6.2 µM
  TGI: 21.5 µM
[56]
  GI50: 20.7 µM
  TGI: 42.8 µM

## Oc1[nH]c2ccccc2c1C=Nc1ccc(-n2cncn2)cc1
[1]
  GI50: > 25 µM
  TGI: > 25 µM
[57]
  GI50: > 25 µM
  TGI: > 25 µM
[2]
  GI50: > 15.7 µM
  TGI: > 25 µM
[3]
  GI50: > 18.5 µM
  TGI: > 25 µM
[4]
  GI50: > 25 µM
  TGI: > 25 µM
[5]
  GI50: 14.6 µM
  TGI: > 25 µM
[6]
  GI50: > 25 µM
  TGI: > 25 µM
[7]
  GI50: > 22.7 µM
  TGI: > 25 µM
[8]
  GI50: > 25 µM
  TGI: > 25 µM
[9]
  GI50: > 25 µM
  TGI: > 25 µM
[10]
  GI50: > 13.8 µM
  TGI: > 22.2 µM
[11]
  GI50: > 23 µM
  TGI: > 25 µM
[12]
  GI50: > 17.1 µM
  TGI: > 25 µM
[13]
  GI50: > 25 µM
  TGI: > 25 µM
[14]
  GI50: 13.6 µM
  TGI: > 25 µM
[15]
  GI50: 8.74 µM
  TGI: > 25 µM
[16]
  GI50: > 18.9 µM
  TGI: > 25 µM
[17]
  GI50: > 24.1 µM
  TGI: > 25 µM
[18]
  GI50: 13.9 µM
  TGI: > 25 µM
[19]
  GI50: > 17.7 µM
  TGI: > 25 µM
[20]
  GI50: > 20.9 µM
  TGI: > 25 µM
[21]
  GI50: > 25 µM
  TGI: > 25 µM
[22]
  GI50: > 25 µM
  TGI: > 25 µM
[23]
  GI50: > 14.5 µM
  TGI: > 25 µM
[24]
  GI50: > 22.1 µM
  TGI: > 25 µM
[25]
  GI50: > 18.9 µM
  TGI: > 25 µM
[26]
  GI50: 18.3 µM
  TGI: > 25 µM
[27]
  GI50: 0.991 µM
  TGI: > 25 µM
[58]
  GI50: > 20.1 µM
  TGI: > 25 µM
[28]
  GI50: 3.06 µM
  TGI: > 25 µM
[29]
  GI50: > 25 µM
  TGI: > 25 µM
[30]
  GI50: > 25 µM
  TGI: > 25 µM
[31]
  GI50: > 25 µM
  TGI: > 25 µM
[32]
  GI50: 14.6 µM
  TGI: > 25 µM
[33]
  GI50: > 25 µM
  TGI: > 25 µM
[34]
  GI50: > 25 µM
  TGI: > 25 µM
[35]
  GI50: 12.9 µM
  TGI: > 25 µM
[36]
  GI50: > 25 µM
  TGI: > 25 µM
[37]
  GI50: > 25 µM
  TGI: > 25 µM
[38]
  GI50: > 16.7 µM
  TGI: > 25 µM
[39]
  GI50: > 23.1 µM
  TGI: > 25 µM
[40]
  GI50: > 16 µM
  TGI: > 25 µM
[41]
  GI50: 18.8 µM
  TGI: > 25 µM
[42]
  GI50: 10.7 µM
  TGI: > 25 µM
[43]
  GI50: 8.79 µM
  TGI: > 21.9 µM
[44]
  GI50: 8.34 µM
  TGI: > 22.1 µM
[45]
  GI50: > 19.2 µM
  TGI: > 25 µM
[46]
  GI50: 19 µM
  TGI: > 25 µM
[47]
  GI50: 18.3 µM
  TGI: > 25 µM
[48]
  GI50: > 25 µM
  TGI: > 25 µM
[49]
  GI50: > 25 µM
  TGI: > 25 µM
[50]
  GI50: > 21.9 µM
  TGI: > 25 µM
[51]
  GI50: > 22.5 µM
  TGI: > 25 µM
[52]
  GI50: > 21.6 µM
  TGI: > 25 µM
[54]
  GI50: 20.4 µM
  TGI: > 25 µM
[55]
  GI50: > 25 µM
  TGI: > 25 µM
[56]
  GI50: 15.7 µM
  TGI: > 25 µM
